According to PMC11111691, “Cystine-knot peptide inhibitors of HTRA1 bind to a cryptic pocket within the active site region” (Nature Communications, 2024):
Positions of bridges follow the written chain, without caps; N, C: chain ends. Non-standard residues stand in square brackets, D forms with d. Residues, ends and D or L forms follow the SMILES beside them. Tyr(3-Cl) = N[C@@H](Cc1ccc(O)c(Cl)c1)C(=O)O

Target: T1, HTRA1^FL (Homo sapiens, UniProt Q92743)
T1 construct: Human full-length HTRA1 (HTRA1^FL, Q23-P480); made in house; host or cells: Trichoplusia ni cells
T1 sequence (Q92743 23-480): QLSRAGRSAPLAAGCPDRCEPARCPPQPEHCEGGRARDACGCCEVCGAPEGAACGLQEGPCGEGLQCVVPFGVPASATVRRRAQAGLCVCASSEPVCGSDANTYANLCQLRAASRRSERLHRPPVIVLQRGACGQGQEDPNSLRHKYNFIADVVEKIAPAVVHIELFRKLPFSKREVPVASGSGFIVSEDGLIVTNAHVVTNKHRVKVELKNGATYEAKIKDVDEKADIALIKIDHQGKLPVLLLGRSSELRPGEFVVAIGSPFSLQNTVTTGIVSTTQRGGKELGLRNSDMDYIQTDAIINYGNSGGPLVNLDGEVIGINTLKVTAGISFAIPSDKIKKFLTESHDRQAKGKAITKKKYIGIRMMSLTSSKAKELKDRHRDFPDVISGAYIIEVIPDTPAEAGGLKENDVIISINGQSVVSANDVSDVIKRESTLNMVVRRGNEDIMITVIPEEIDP
Assay: HTRA1^FL enzyme inhibition assay with synthetic substrate H2-OPT
Format: biochemical
Protocol: Assays with the fluorescence-quenched synthetic substrate Mca-IRRVSYSFK(Dnp)K (H2-OPT)[38],[60] were carried out essentially as described. CKP stock solutions in DMSO were diluted in TNC buffer (dilution series for IC50 determinations, or final concentration of 2 µM for selectivity assay or as indicated for HTRA1/4 mutants) and incubated with enzymes in 96-well black optical bottom plates for 60 min at 37 °C. For selectivity experiments we used the 7mer-ABP as inhibitor, which was incubated with the proteases for 15 min at 37 °C. A 10 mM stock solution of H2-OPT in DMSO was diluted with water, prewarmed at 37 °C and then added to the CKP-enzyme mixtures. The final concentrations in the reaction mixtures were: 1 nM HTRA1^FL, 3 nM HTRA1^PD/PDZ, 1 nM HTRA1^PD, 1 nM HTRA2^PD/PDZ, 3 nM HTRA3^FL, 60 nM HTRA3^PD/PDZ, 6 nM HTRA4^FL, 1 µM HTRA4^PD/PDZ, 1 nM mouse HTRA1^PD, 25 nM HTRA1^PD-A202Y, 1 µM HTRA4^PD/PDZ-Y200A, 0.5 mM 7mer-ABP, 5 µM H2-OPT, and 0.25% DMSO. The kinetics of substrate cleavage was measured at 37 °C on a SpectraMax M5 microplate reader with excitation of 328 nm and emission of 393 nm. The determined initial rates of cleavage were expressed as percent of control (DMSO control) after subtracting the baseline rates (without enzyme). IC50 values were determined by Sigmoidal 4PL modeling of multiple data points from serial dilutions of CKPs using Prism 9 software (GraphPad). For selectivity assays with HTRA1-4^PD/PDZ constructs, the specific activities of the enzymes and enzyme:CKP inhibitor ratios were as follows: HTRA1^PD/PDZ, 12560 mRFU/min/nM – 1:667; HTRA2^PD/PDZ, 32300 mRFU/min/nM – 1:2000; HTRA3^PD/PDZ, 962 mRFU/min/nM – 1:33; HTRA4^PD/PDZ, 18 mRFU/min/nM – 1:2.

| Structure (SMILES) | IC50 [nM] |
| --- | --- |
| CC[C@H](C)[C@H](NC(=O)[C@H](CCC(N)=O)NC(=O)[C@H](CCCNC(=N)N)NC(=O)[C@H](CC(C)C)NC(=O)CNC(=O)[C@H](Cc1c[nH]c2ccccc12)NC(=O)CNC(=O)[C@@H]1CSSC[C@@H]2NC(=O)[C@H](CC(=O)O)NC(=O)[C@H](CC(=O)O)NC(=O)[C@H](Cc3c[nH]cn3)NC(=O)[C@H]([C@@H](C)O)NC(=O)[C@H](CC(=O)O)NC(=O)[C@@H]3CSSC[C@H](NC(=O)[C@H]([C@@H](C)O)NC(=O)[C@H](CCC(N)=O)NC(=O)[C@H](CSSC[C@H](NC(=O)[C@@H](NC(=O)[C@@H]4CCCN4C(=O)[C@H](CC(=O)O)NC(=O)[C@H](C)NC(=O)[C@@H](N)Cc4c[nH]cn4)[C@@H](C)CC)C(=O)N[C@@H](CC(N)=O)C(=O)N[C@@H](CCCCN)C(=O)N4CCC[C@H]4C(=O)N3)NC(=O)[C@H](Cc3ccccc3)NC(=O)[C@H](Cc3c[nH]c4ccccc34)NC(=O)[C@H](C)NC(=O)CNC(=O)[C@H](CO)NC2=O)C(=O)N[C@@H](Cc2ccc(O)cc2)C(=O)N[C@@H](Cc2ccc(O)cc2)C(=O)N[C@@H](C)C(=O)N[C@@H]([C@@H](C)O)C(=O)N[C@@H](Cc2c[nH]c3ccccc23)C(=O)N[C@@H](CO)C(=O)N1)C(=O)N[C@@H](CC(=O)O)C(N)=O [1A8.K11D] (H-HADPICNKPCDTHDDCSGAWFCQTCYYATWSCGWGLRQID-NH2; disulfide 6-22, 10-25, 16-32) | 1.2 ± 0.4 |
| CC[C@H](C)[C@H](NC(=O)[C@H](CCC(N)=O)NC(=O)[C@H](CCCNC(=N)N)NC(=O)[C@H](CC(C)C)NC(=O)CNC(=O)[C@H](Cc1c[nH]c2ccccc12)NC(=O)CNC(=O)[C@@H]1CSSC[C@@H]2NC(=O)[C@H](CC(=O)O)NC(=O)[C@H](CC(=O)O)NC(=O)[C@H](Cc3c[nH]cn3)NC(=O)[C@H]([C@@H](C)O)NC(=O)[C@H](CCCCN)NC(=O)[C@@H]3CSSC[C@H](NC(=O)[C@H]([C@@H](C)O)NC(=O)[C@H](CCC(N)=O)NC(=O)[C@H](CSSC[C@H](NC(=O)[C@@H](NC(=O)[C@@H]4CCCN4C(=O)[C@H](CC(=O)O)NC(=O)[C@H](C)NC(=O)[C@@H](N)Cc4c[nH]cn4)[C@@H](C)CC)C(=O)N[C@@H](CC(N)=O)C(=O)N[C@@H](CCCCN)C(=O)N4CCC[C@H]4C(=O)N3)NC(=O)[C@H](Cc3ccccc3)NC(=O)[C@H](Cc3c[nH]c4ccccc34)NC(=O)[C@H](C)NC(=O)CNC(=O)[C@H](CO)NC2=O)C(=O)N[C@@H](Cc2ccc(O)c(Cl)c2)C(=O)N[C@@H](Cc2ccc(O)cc2)C(=O)N[C@@H](C)C(=O)N[C@@H]([C@@H](C)O)C(=O)N[C@@H](Cc2c[nH]c3ccccc23)C(=O)N[C@@H](CO)C(=O)N1)C(=O)N[C@@H](CC(=O)O)C(N)=O [1A8.Y26Y(3Cl)] (H-HADPICNKPCKTHDDCSGAWFCQTC[Tyr(3-Cl)]YATWSCGWGLRQID-NH2; disulfide 6-22, 10-25, 16-32) | 2.4 ± 0.3 |
| CC[C@H](C)[C@H](NC(=O)[C@H](CCC(N)=O)NC(=O)[C@H](CCCNC(=N)N)NC(=O)[C@H](CC(C)C)NC(=O)CNC(=O)[C@H](Cc1c[nH]c2ccccc12)NC(=O)CNC(=O)[C@@H]1CSSC[C@@H]2NC(=O)[C@H](CC(=O)O)NC(=O)[C@H](CC(=O)O)NC(=O)[C@H](Cc3c[nH]cn3)NC(=O)[C@H]([C@@H](C)O)NC(=O)[C@H](CCCCN)NC(=O)[C@@H]3CSSC[C@H](NC(=O)[C@H]([C@@H](C)O)NC(=O)[C@H](CCC(N)=O)NC(=O)[C@H](CSSC[C@H](NC(=O)[C@@H](NC(=O)[C@@H]4CCCN4C(=O)[C@H](CC(=O)O)NC(=O)[C@H](C)NC(=O)[C@@H](N)Cc4c[nH]cn4)[C@@H](C)CC)C(=O)N[C@@H](CC(N)=O)C(=O)N[C@@H](CCCCN)C(=O)N4CCC[C@H]4C(=O)N3)NC(=O)[C@H](Cc3ccccc3)NC(=O)[C@H](Cc3c[nH]c4ccccc34)NC(=O)[C@H](C)NC(=O)CNC(=O)[C@H](CO)NC2=O)C(=O)N[C@@H](Cc2ccc(O)cc2)C(=O)N[C@@H](Cc2ccc(O)cc2)C(=O)N[C@@H](C)C(=O)N[C@@H](CC(N)=O)C(=O)N[C@@H](Cc2c[nH]c3ccccc23)C(=O)N[C@@H](CO)C(=O)N1)C(=O)N[C@@H](CC(=O)O)C(N)=O [1A8.L5.1] (H-HADPICNKPCKTHDDCSGAWFCQTCYYANWSCGWGLRQID-NH2; disulfide 6-22, 10-25, 16-32) | 1 ± 0.1 |
| CC[C@H](C)[C@H](NC(=O)[C@H](CCC(N)=O)NC(=O)[C@H](CCCNC(=N)N)NC(=O)[C@H](CC(C)C)NC(=O)CNC(=O)[C@H](Cc1c[nH]c2ccccc12)NC(=O)CNC(=O)[C@@H]1CSSC[C@@H]2NC(=O)[C@H](CC(=O)O)NC(=O)[C@H](CC(=O)O)NC(=O)[C@H](Cc3c[nH]cn3)NC(=O)[C@H]([C@@H](C)O)NC(=O)[C@H](CCCCN)NC(=O)[C@@H]3CSSC[C@H](NC(=O)[C@H]([C@@H](C)O)NC(=O)[C@H](CCC(N)=O)NC(=O)[C@H](CSSC[C@H](NC(=O)[C@@H](NC(=O)[C@@H]4CCCN4C(=O)[C@H](CC(=O)O)NC(=O)[C@H](C)NC(=O)[C@@H](N)Cc4c[nH]cn4)[C@@H](C)CC)C(=O)NCC(=O)N[C@@H](CO)C(=O)N[C@@H](CCC(N)=O)C(=O)N3)NC(=O)[C@H](Cc3ccccc3)NC(=O)[C@H](Cc3c[nH]c4ccccc34)NC(=O)[C@H](C)NC(=O)CNC(=O)[C@H](CO)NC2=O)C(=O)N[C@@H](Cc2ccc(O)cc2)C(=O)N[C@@H](Cc2ccc(O)cc2)C(=O)N[C@@H](C)C(=O)N[C@@H]([C@@H](C)O)C(=O)N[C@@H](Cc2c[nH]c3ccccc23)C(=O)N[C@@H](CO)C(=O)N1)C(=O)N[C@@H](CC(=O)O)C(N)=O [1A8.L1.1] (H-HADPICGSQCKTHDDCSGAWFCQTCYYATWSCGWGLRQID-NH2; disulfide 6-22, 10-25, 16-32) | 2.3 ± 0.1 |
| CC[C@H](C)[C@H](NC(=O)[C@H](CCC(N)=O)NC(=O)[C@H](CCCNC(=N)N)NC(=O)[C@H](CC(C)C)NC(=O)CNC(=O)[C@H](Cc1c[nH]c2ccccc12)NC(=O)CNC(=O)[C@@H]1CSSC[C@@H]2NC(=O)[C@H](CC(=O)O)NC(=O)[C@H](CC(=O)O)NC(=O)[C@H](Cc3c[nH]cn3)NC(=O)[C@H]([C@@H](C)O)NC(=O)[C@H](CCCCN)NC(=O)[C@@H]3CSSC[C@H](NC(=O)[C@H]([C@@H](C)O)NC(=O)[C@H](CCC(N)=O)NC(=O)[C@H](CSSC[C@H](NC(=O)[C@@H](NC(=O)[C@@H]4CCCN4C(=O)[C@H](CC(=O)O)NC(=O)[C@H](C)NC(=O)[C@@H](N)Cc4c[nH]cn4)[C@@H](C)CC)C(=O)N[C@@H](CC(N)=O)C(=O)N[C@@H](CCCCN)C(=O)N4CCC[C@H]4C(=O)N3)NC(=O)[C@H](Cc3ccccc3)NC(=O)[C@H](Cc3c[nH]c4ccccc34)NC(=O)[C@H](C)NC(=O)CNC(=O)[C@H](CO)NC2=O)C(=O)N[C@@H](Cc2ccc(O)cc2)C(=O)N[C@@H](Cc2ccc(O)cc2)C(=O)N[C@@H](C)C(=O)N[C@@H](CO)C(=O)N[C@@H](Cc2c[nH]c3ccccc23)C(=O)N[C@@H](CO)C(=O)N1)C(=O)N[C@@H](CC(=O)O)C(N)=O [1A8.L5.2] (H-HADPICNKPCKTHDDCSGAWFCQTCYYASWSCGWGLRQID-NH2; disulfide 6-22, 10-25, 16-32) | 2 ± 0.2 |
| CC[C@H](C)[C@H](NC(=O)[C@H](CCC(N)=O)NC(=O)[C@H](CCCNC(=N)N)NC(=O)[C@H](CC(C)C)NC(=O)CNC(=O)[C@H](Cc1c[nH]c2ccccc12)NC(=O)CNC(=O)[C@@H]1CSSC[C@@H]2NC(=O)[C@H](CC(=O)O)NC(=O)[C@H](CC(=O)O)NC(=O)[C@H](Cc3c[nH]cn3)NC(=O)[C@H]([C@@H](C)O)NC(=O)[C@H](CCCCN)NC(=O)[C@@H]3CSSC[C@H](NC(=O)[C@H]([C@@H](C)O)NC(=O)[C@H](CCC(N)=O)NC(=O)[C@H](CSSC[C@H](NC(=O)[C@@H](NC(=O)[C@@H]4CCCN4C(=O)[C@H](CC(=O)O)NC(=O)[C@H](C)NC(=O)[C@@H](N)Cc4c[nH]cn4)[C@@H](C)CC)C(=O)NCC(=O)N[C@@H](Cc4c[nH]cn4)C(=O)N[C@@H](CCC(N)=O)C(=O)N3)NC(=O)[C@H](Cc3ccccc3)NC(=O)[C@H](Cc3c[nH]c4ccccc34)NC(=O)[C@H](C)NC(=O)CNC(=O)[C@H](CO)NC2=O)C(=O)N[C@@H](Cc2ccc(O)cc2)C(=O)N[C@@H](Cc2ccc(O)cc2)C(=O)N[C@@H](C)C(=O)N[C@@H]([C@@H](C)O)C(=O)N[C@@H](Cc2c[nH]c3ccccc23)C(=O)N[C@@H](CO)C(=O)N1)C(=O)N[C@@H](CC(=O)O)C(N)=O [1A8.L1.2] (H-HADPICGHQCKTHDDCSGAWFCQTCYYATWSCGWGLRQID-NH2; disulfide 6-22, 10-25, 16-32) | 3.2 ± 0.1 |
